Experimental data: DBAASP
Values after ≈ are worked out from the molar mass of the structure shown.

Key:
Experiment in all cases: ≥ marks a high value that may be exact or a test limit, other limits are often not marked, values filed in µg/mL are converted to µM
[1] = test system: Pseudomonas aeruginosa ATCC 27853
Escherichia coli UB1005 = test system: Escherichia coli UB1005
[2] = test system: Staphylococcus epidermidis C621
[3] = test system: Escherichia coli ATCC 25922
[4] = test system: Bacillus subtilis ATCC 6633
[5] = test system: Enterococcus faecalis ATCC 29212
[6] = test system: Staphylococcus aureus ATCC 25923
[7] = test system: Staphylococcus aureus KCTC 1621
[8] = test system: Salmonella typhimurium KCTC 1926
[9] = test system: Staphylococcus epidermidis KCTC 1917
[10] = test system: Pseudomonas aeruginosa KCTC 1637
[11] = test system: Escherichia coli KCTC 1682
[12] = test system: Bacillus subtilis KCTC 3068
[13] = test system: Escherichia coli ATCC 25726
[14] = test system: Pseudomonas aeruginosa CMCCB 10104
[15] = test system: Candida albicans ATCC 2002

| Compound | MIC [3] | MIC [6] | MIC [7] | MIC [8] | MIC [9] | MIC [10] | MIC [11] | MIC [12] | MIC [14] | MIC [15] | also measured |
| --- | --- | --- | --- | --- | --- | --- | --- | --- | --- | --- | --- |
| C[C@H](NC(=O)[C@H](C)NC(=O)[C@H](Cc1ccccc1)NC(=O)[C@H](C)NC(=O)[C@H](C)NC(=O)[C@H](Cc1ccccc1)NC(=O)[C@H](C)NC(=O)[C@H](C)NC(=O)[C@H](Cc1ccccc1)NC(=O)[C@H](C)NC(=O)[C@H](C)NC(=O)[C@H](CCCCN)NC(=O)[C@H](CCCCN)NC(=O)[C@H](CCCCN)NC(=O)[C@H](CCCCN)NC(=O)[C@H](CCCCN)NC(=O)[C@@H](N)CCCCN)C(N)=O [KKKKKKAAFAAFAAFAA] | 16 µM (≈ 28.7 µg/mL) | > 32 µM | – | – | – | – | – | – | – | – | MIC [1]: 16 µM (≈ 28.7 µg/mL); MIC (Escherichia coli UB1005): 2 µM (≈ 3.59 µg/mL); MIC [2]: 8 µM (≈ 14.4 µg/mL); MIC [4]: 16 µM (≈ 28.7 µg/mL); MIC [5]: > 32 µM |
| CC[C@H](C)[C@H](NC(=O)[C@@H]1CCCN1C(=O)[C@H](CC(C)C)NC(=O)[C@@H](N)Cc1ccccc1)C(=O)N[C@@H](CC(C)C)C(=O)NCC(=O)N[C@@H](CC(N)=O)C(=O)N[C@@H](CC(C)C)C(=O)N[C@@H](CC(C)C)C(=O)N[C@@H](CO)C(=O)NCC(=O)N[C@@H](CC(C)C)C(=O)N[C@@H](CC(C)C)C(N)=O [FLPILGNLLSGLL] | – | 50 µM (≈ 68.4 µg/mL) | – | – | – | – | – | – | – | – | MIC [13]: ≥ 100 µM |
| CC[C@H](C)[C@H](NC(=O)[C@H](CCC(=O)O)NC(=O)[C@H](CO)NC(=O)[C@@H](NC(=O)[C@H](CC(C)C)NC(=O)[C@H](C)NC(=O)[C@H](CCC(N)=O)NC(=O)CNC(=O)[C@H](Cc1ccccc1)NC(=O)[C@H](CCCCN)NC(=O)[C@H](CCCCN)NC(=O)[C@H](C)NC(=O)[C@H](CO)NC(=O)[C@H](Cc1cnc[nH]1)NC(=O)[C@H](CC(C)C)NC(=O)[C@H](Cc1ccccc1)NC(=O)[C@H](CCCCN)NC(=O)CNC(=O)[C@@H](NC(=O)CN)C(C)C)C(C)C)C(=O)N[C@@H](CCSC)C(=O)N[C@@H](CCCCN)C(=O)N[C@@H](CO)C(=O)O [GVGKFLHSAKKFGQALVSEIMKS] | – | > 100 µM | – | – | – | – | – | – | – | – | MIC [13]: ≥ 50 µM |
| CC[C@H](C)[C@H](NC(=O)CN)C(=O)N[C@@H](Cc1ccccc1)C(=O)N[C@@H](CO)C(=O)N[C@@H](CCCCN)C(=O)N[C@H](C(=O)N[C@@H](CO)C(=O)NCC(=O)N[C@@H](CCCCN)C(=O)N[C@@H](C)C(=O)N[C@H](C(=O)N[C@@H](CCCCN)C(=O)N[C@@H](CC(N)=O)C(=O)N[C@@H](CC(C)C)C(=O)N[C@@H](Cc1ccccc1)C(=O)N[C@H](C(=O)N[C@@H](CCCCN)C(=O)NCC(=O)N[C@@H](C)C(=O)N[C@@H](CCCCN)C(=O)N[C@@H](CC(N)=O)C(=O)N[C@H](C(=O)NCC(=O)N[C@@H](CCCCN)C(=O)N[C@@H](CCCN=C(N)N)C(=O)N[C@H](C(=O)NCC(=O)N[C@@H](CCSC)C(=O)N[C@@H](CC(=O)O)C(=O)N[C@H](C(=O)N[C@H](C(=O)N[C@@H](CCCN=C(N)N)C(=O)N[C@H](C(=O)NCC(=O)N[C@@H](CCSC)C(=O)N[C@@H](CC(=O)O)C(=O)N[C@H](C(=O)N[C@H](C(=O)NCC(=O)N[C@H]1CSSC[C@@H](C(=O)O)NC(=O)[C@H](CCC(=O)O)NC(=O)CNC(=O)[C@H](CCCCN)NC(=O)[C@H]([C@@H](C)CC)NC(=O)[C@H](CCCCN)NC1=O)C(C)C)C(C)C)[C@@H](C)O)C(C)C)C(C)C)C(C)C)C(C)C)[C@@H](C)CC)[C@@H](C)CC)[C@@H](C)CC [GIFSKISGKAIKNLFIKGAKNVGKRVGMDVVRTGMDVVGCKIKGEC] | 1.13 µM (≈ 5.5 µg/mL) | 2.27 µM (≈ 11 µg/mL) | – | – | – | – | – | – | 2.27 µM (≈ 11 µg/mL) | 2.27 µM (≈ 11 µg/mL) | – |
| CC[C@H](C)[C@H](NC(=O)[C@H](CC(C)C)NC(=O)[C@@H](NC(=O)[C@H](Cc1ccccc1)NC(=O)[C@H](CC(C)C)NC(=O)CN)[C@@H](C)O)C(=O)N[C@@H](CCCCN)C(=O)NCC(=O)N[C@@H](C)C(=O)N[C@@H](Cc1ccc(O)cc1)C(=O)N[C@@H](CCCCN)C(=O)N[C@@H](CC(N)=O)C(=O)N[C@@H](CC(=O)O)C(=O)N[C@@H](C)C(=O)N1CCC[C@H]1C(=O)N[C@H](C(=O)N[C@H](C(=O)N[C@@H](C)C(=O)N[C@@H](CS)C(=O)N[C@@H](CC(N)=O)C(=O)O)C(C)C)[C@@H](C)O [GLFTLIKGAYKNDAPTVACN] | 11.6 µM (≈ 24.3 µg/mL) | 5.82 µM (≈ 12.2 µg/mL) | – | – | – | – | – | – | 23.2 µM (≈ 48.6 µg/mL) | 11.6 µM (≈ 24.3 µg/mL) | – |
| CC[C@H](C)[C@H](NC(=O)[C@H](CC(C)C)NC(=O)[C@H](CCC(N)=O)NC(=O)[C@@H](NC(=O)[C@H](C)NC(=O)CNC(=O)[C@H](CCCCN)NC(=O)[C@@H](NC(=O)[C@H](CC(C)C)NC(=O)[C@@H](NC(=O)[C@H](Cc1ccccc1)NC(=O)[C@@H](NC(=O)CN)C(C)C)[C@@H](C)O)[C@@H](C)CC)[C@@H](C)O)C(=O)NCC(=O)N[C@@H](CCCCN)C(=O)N[C@H](C(=O)N[C@@H](CC(C)C)C(=O)NCC(=O)N[C@@H](CCCCN)C(=O)N[C@@H](CCC(=O)O)C(=O)N[C@@H](CC(C)C)C(=O)NCC(=O)N[C@@H](CCCCN)C(=O)N[C@H](C(=O)NCC(=O)N[C@@H](CC(C)C)C(=O)N[C@@H](CCC(=O)O)C(=O)N[C@@H](CC(C)C)C(=O)N[C@@H](CCSC)C(=O)N[C@@H](C)C(=O)N[C@H]1CSSC[C@@H](C(=O)O)NC(=O)[C@H](CCC(N)=O)NC(=O)[C@H](CCC(=O)O)NC(=O)[C@H]([C@@H](C)O)NC(=O)[C@H]([C@@H](C)CC)NC(=O)[C@H](CCCCN)NC1=O)[C@@H](C)O)[C@@H](C)O [GVFTLIKGATQLIGKTLGKELGKTGLELMACKITEQC] | 0.924 µM (≈ 3.6 µg/mL) | 0.924 µM (≈ 3.6 µg/mL) | – | – | – | – | – | – | 0.924 µM (≈ 3.6 µg/mL) | 0.924 µM (≈ 3.6 µg/mL) | – |

Further lines, with some results ahead:

| MIC [3] | MIC [6] | MIC [7] | MIC [8] | MIC [9] | MIC [10] | MIC [11] | MIC [12] | MIC [14] | MIC [15] | Compound | also measured |
| --- | --- | --- | --- | --- | --- | --- | --- | --- | --- | --- | --- |
| – | – | 5.08 µM (≈ 10 µg/mL) | 5.08 µM (≈ 10 µg/mL) | 5.08 µM (≈ 10 µg/mL) | 5.08 µM (≈ 10 µg/mL) | 5.08 µM (≈ 10 µg/mL) | 5.08 µM (≈ 10 µg/mL) | – | – | CC[C@H](C)[C@H](N)C(=O)N[C@@H](CC(C)C)C(=O)N[C@@H](CCCCN)C(=O)N[C@@H](Cc1c[nH]c2ccccc12)C(=O)N[C@@H](CCCCN)C(=O)N[C@@H](Cc1c[nH]c2ccccc12)C(=O)N[C@@H](CCCCN)C(=O)N[C@@H](Cc1c[nH]c2ccccc12)C(=O)N[C@@H](Cc1c[nH]c2ccccc12)C(=O)N1CCC[C@H]1C(=O)N[C@@H](Cc1c[nH]c2ccccc12)C(=O)N[C@@H](CCCN=C(N)N)C(=O)N[C@@H](CCCN=C(N)N)C(N)=O [ILKWKWKWWPWRR] | – |
| – | – | 2 µM (≈ 4.6 µg/mL) | 1 µM (≈ 2.3 µg/mL) | 1 µM (≈ 2.3 µg/mL) | 1 µM (≈ 2.3 µg/mL) | 2 µM (≈ 4.6 µg/mL) | 2 µM (≈ 4.6 µg/mL) | – | – | CC[C@H](C)[C@H](NC(=O)[C@H](CCCCN)NC(=O)[C@H](CCCCN)NC(=O)[C@H](Cc1ccccc1)NC(=O)[C@H](CC(C)C)NC(=O)[C@H](CCCCN)NC(=O)[C@H](C)NC(=O)[C@@H](N)CCCCN)C(=O)N1CCC[C@H]1C(=O)N[C@@H](CCCCN)C(=O)N[C@@H](Cc1ccccc1)C(=O)N[C@@H](CC(C)C)C(=O)N[C@@H](Cc1cnc[nH]1)C(=O)N[C@@H](CC(C)C)C(=O)N[C@@H](Cc1c[nH]c2ccccc12)C(=O)N[C@@H](CCCCN)C(=O)N[C@@H](CCCCN)C(=O)N[C@@H](Cc1ccccc1)C(N)=O [KAKLFKKIPKFLHLWKKF] | – |
| – | – | 7.44 µM (≈ 12.5 µg/mL) | 1.86 µM (≈ 3.13 µg/mL) | 3.72 µM (≈ 6.25 µg/mL) | 3.72 µM (≈ 6.25 µg/mL) | 14.9 µM (≈ 25 µg/mL) | 7.44 µM (≈ 12.5 µg/mL) | – | – | CC[C@H](C)[C@H](NC(=O)[C@H](CCCN=C(N)N)NC(=O)[C@H](CC(C)C)NC(=O)[C@H](CC(C)C)NC(=O)[C@@H](N)CCCN=C(N)N)C(=O)N[C@@H](Cc1c[nH]c2ccccc12)C(=O)N[C@@H](Cc1c[nH]c2ccccc12)C(=O)N[C@H](C(=O)N[C@@H](CCCN=C(N)N)C(=O)N[C@H](C(=O)N[C@@H](CC(C)C)C(=O)N[C@@H](CCCN=C(N)N)C(N)=O)C(C)C)[C@@H](C)CC [RLLRIWWIRVLR] | – |
| – | – | 2.54 µM (≈ 5 µg/mL) | 5.08 µM (≈ 10 µg/mL) | 5.08 µM (≈ 10 µg/mL) | 5.08 µM (≈ 10 µg/mL) | 5.08 µM (≈ 10 µg/mL) | 2.54 µM (≈ 5 µg/mL) | – | – | CC[C@H](C)[C@H](N)C(=O)N[C@@H](CC(C)C)C(=O)N[C@@H](CCCCN)C(=O)N[C@@H](Cc1c[nH]c2ccccc12)C(=O)N[C@@H](CCCCN)C(=O)N[C@@H](Cc1c[nH]c2ccccc12)C(=O)N1CCC[C@H]1C(=O)N[C@@H](Cc1c[nH]c2ccccc12)C(=O)N[C@@H](Cc1c[nH]c2ccccc12)C(=O)N[C@@H](CCCCN)C(=O)N[C@@H](Cc1c[nH]c2ccccc12)C(=O)N[C@@H](CCCN=C(N)N)C(=O)N[C@@H](CCCN=C(N)N)C(N)=O [ILKWKWPWWKWRR] | – |
| > 126 µM | > 126 µM | – | – | – | – | – | – | ≥ 126 µM | ≥ 126 µM | CC(C)[C@H](N)C(=O)N[C@H](C(=O)N[C@@H](CCCCN)C(=O)N[C@@H](CS)C(=O)N[C@@H](CO)C(=O)N[C@@H](Cc1ccc(O)cc1)C(=O)N[C@@H](CCCN=C(N)N)C(=O)N[C@@H](CCC(N)=O)C(=O)NCC(=O)N[C@@H](CO)C(=O)N1CCC[C@H]1C(=O)N[C@@H](CC(=O)O)C(=O)N[C@@H](CO)C(=O)N[C@@H](CCCN=C(N)N)C(=O)O)C(C)C [VVKCSYRQGSPDSR] | – |
